Assay results: publication PMC4999502, “A rheostat mechanism governs the bifurcation of carbon flux in mycobacteria” (Nature Communications, 2016)

Assays:
[1] = molecular target: T1, M. smegmatis ICD (MsmICD) (Mycolicibacterium smegmatis, UniProt A0QSZ3); assay: X-ray crystal structure, […] Å; format: binding; conditions: Mn2+ bound; crystals pre-incubated with glyoxylate, MnCl2, isocitrate and NADP+; pH 7.5
T1 construct: gene MSMEG_1654; full ORF, 743 AA; pET-28a(+), C-terminal TEV site and 6-His tag, tag removed by TEV; E. coli BL21(DE3); text says mycobacterial ICD2 forms dimers in solution

[2] = molecular target: T1, M. smegmatis ICD (MsmICD); assay: isothermal titration calorimetry; format: binding; conditions: pH 7.5, 25 °C, 10 mM Tris, 10 mM EDTA, 2.5 mM MgCl2; putative allosteric activator; 1:1 single-site fit
Excerpt: isothermal titration calorimetry on M. smegmatis ICD (MsmICD)

## O=C(O)C[C@H](C(=O)O)[C@@H](O)C(=O)O (racemic) [isocitrate]
[1]
  X-ray crystal structure, 2.8 Å: We determined the structure of MsmICD bound to isocitrate and manganese

## O=CC(=O)O [glyoxylate]
[2]
  K (M^-1): 1.10e^6±4.21e^5
